Assay results taken from patent publication US12559529B2, “NPY2 receptor agonists” (Boehringer Ingelheim International GmbH, priority 2019, dated 2026).
*1 amine or outer side, *2 acyl side, *3 side chain or, on linkers, in order; H or OH if unused. Where a SMILES comes first, the peptide text is derived from it. Side-chain parts run from the residue outwards. The star is where a group is joined. C18 diacid = O=C(O)CCCCCCCCCCCCCCCCC(=O)*; γGlu = O=C(O)[C@H](CCC(=O)[*:2])N[*:1]; Isovaleryl = CC(C)CC(=O)*; AEEA = NCCOCCOCC(=O)O

Target: T1, Human Neuropeptide Y2 Receptor (Homo sapiens, UniProt P49146)
T1 construct: purchased CHEMICON HTS066M
T1 sequence (P49146 1-381): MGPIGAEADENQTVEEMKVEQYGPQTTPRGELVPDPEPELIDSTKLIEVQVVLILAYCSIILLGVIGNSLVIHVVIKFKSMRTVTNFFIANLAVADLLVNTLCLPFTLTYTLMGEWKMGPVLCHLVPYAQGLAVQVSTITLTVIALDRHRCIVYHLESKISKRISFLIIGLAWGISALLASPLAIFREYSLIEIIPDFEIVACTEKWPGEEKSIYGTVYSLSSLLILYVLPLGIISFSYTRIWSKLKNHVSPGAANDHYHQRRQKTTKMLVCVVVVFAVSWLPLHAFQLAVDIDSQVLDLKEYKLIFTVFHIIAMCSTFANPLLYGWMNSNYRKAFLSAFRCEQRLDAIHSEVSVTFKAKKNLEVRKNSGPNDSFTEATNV
Assay: Radioligand binding competition assay (RLB)
Conditions: Table 3; human 125I-PYY (1-36) 0.02 nM, Y2 receptor membranes; read-out: Ki
Outline: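 Competition binding on human Y2 receptor membranes, 0.5 μg protein/well, in 50 mM HEPES, 5 mM MgCl2, 1 mM CaCl2, pH 7.4, 0.2% ovalbumin; peptides diluted from 1 mM DMSO stocks.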

Row | Ki | Structure (SMILES)
1 | 4.64 nM | CC(C)CC(=O)N[C@@H](C)C(=O)N1CCC[C@H]1C(=O)N[C@@H](CCC(=O)O)C(=O)N[C@@H](CCCCNC(=O)COCCOCCNC(=O)COCCOCCNC(=O)CC[C@H](NC(=O)CCCCCCCCCCCCCCCCC(=O)O)C(=O)O)C(=O)N1CCC[C@H]1C(=O)NCC(=O)N[C@@H](CCC(=O)O)C(=O)N[C@@H](CCC(=O)O)C(=O)N[C@@H](C)C(=O)N[C@@H](CO)C(=O)N1CCC[C@H]1C(=O)N[C@@H](CCC(=O)O)C(=O)N[C@@H](CCC(=O)O)C(=O)N[C@@H](CC(C)C)C(=O)N[C@@H](CCC(=O)O)C(=O)N[C@@H](CCC(N)=O)C(=O)N[C@@H](Cc1ccc(O)cc1)C(=O)N[C@@H](Cc1ccc(O)cc1)C(=O)N[C@H](C(=O)N[C@@H](CO)C(=O)N[C@@H](CC(C)C)C(=O)N[C@@H](CCCNC(=N)N)C(=O)N[C@@H](Cc1c[nH]cn1)C(=O)N[C@@H](Cc1ccc(O)cc1)C(=O)N[C@@H](Cc1ccc(O)cc1)C(=O)N[C@@H](CC(N)=O)C(=O)N[C@@H](Cc1c[nH]c2ccccc12)C(=O)N[C@@H](CC(C)C)C(=O)N[C@H](C(=O)N[C@@H](CCCNC(=N)N)C(=O)N[C@@H](CCC(N)=O)C(=O)N[C@@H](CCCNC(=N)N)C(=O)N[C@@H](Cc1ccc(O)cc1)C(N)=O)[C@@H](C)O)C(C)C [Compound 224, N{alpha-4}-(3-methylbutanoyl)-N{epsilon-7}-[2-(2-{2-[2-(2-{2-[(4S)-4-carboxy-4-(17-carboxyheptadecanamido)butanamido]ethoxy}ethoxy)acetamido]ethoxy}ethoxy)acetamido]-[4A,7K,11E,18E,19Q,22V,28Y,30W,31L]hPYY (4-36)] (Isovaleryl-APEK([AEEA-AEEA-γGlu-C18 diacid])PGEEASPEELEQYYVSLRHYYNWLTRQRY-NH2)
2 | 1.21 nM | CC(C)CC(=O)N[C@@H](C)C(=O)N1CCC[C@H]1C(=O)N[C@@H](CCC(=O)O)C(=O)N[C@@H](CCCCNC(=O)COCCOCCNC(=O)COCCOCCNC(=O)CC[C@H](NC(=O)CCCCCCCCCCCCCCCCC(=O)O)C(=O)O)C(=O)N1CCC[C@H]1C(=O)N[C@@H](CCC(=O)O)C(=O)N[C@@H](CCC(=O)O)C(=O)N[C@@H](C)C(=O)N[C@@H](C)C(=O)N[C@@H](CO)C(=O)N1CCC[C@H]1C(=O)N[C@@H](CCC(=O)O)C(=O)N[C@@H](CCC(=O)O)C(=O)N[C@H](C(=O)N[C@@H](CCC(N)=O)C(=O)N[C@@H](CCCNC(=N)N)C(=O)N[C@@H](Cc1ccc(O)cc1)C(=O)N[C@@H](Cc1ccc(O)cc1)C(=O)N[C@H](C(=O)N[C@@H](CO)C(=O)N[C@@H](CC(C)C)C(=O)N[C@@H](CCCNC(=N)N)C(=O)N[C@@H](Cc1c[nH]cn1)C(=O)N[C@@H](Cc1ccc(O)cc1)C(=O)N[C@@H](Cc1ccc(O)cc1)C(=O)N[C@@H](CC(N)=O)C(=O)N[C@@H](Cc1c[nH]c2ccccc12)C(=O)N[C@@H](CC(C)C)C(=O)N[C@H](C(=O)N[C@@H](CCCNC(=N)N)C(=O)N[C@@H](CCC(N)=O)C(=O)N[C@@H](CCCNC(=N)N)C(=O)N[C@@H](Cc1ccc(O)cc1)C(N)=O)[C@@H](C)O)C(C)C)[C@@H](C)O [Compound 226, N{alpha-4}-(3-methylbutanoyl)-N{epsilon-7}-[2-(2-{2-[2-(2-{2-[(4S)-4-carboxy-4-(17-carboxyheptadecanamido)butanamido]ethoxy}ethoxy)acetamido]ethoxy}ethoxy)acetamido]-[4A,7K,9E,11A,17T,18Q,22V,28Y,30W,31L]hPYY (4-36)]
